# US6362166B1, “Antipicornaviral compounds and methods for their use and preparation” (Agouron Pharmaceuticals, Inc., priority 1996, dated 2002)
# Key:
# [1] = Cytotoxicity in mock-infected HI-HeLa cells (antirhinoviral assay, XTT); type: cell-based; conditions: human; mock-infected HI-HeLa cells; two days; XTT; read-out: CC50
# [2] = target: T1, Recombinant Rhinovirus 3C protease (RVP) serotype-14 (Human rhinovirus 14, UniProt P03303); assay: Inhibition of Rhinovirus Protease (fluorescence resonance energy transfer assay), serotype 14; type: biochemical, human rhinovirus (HRV); conditions: for kinact/KI: pH 7.6, read-out: kobs/I
# T1 construct: Recombinant Rhinovirus 3C proteases from serotypes 14, 16, 2 or 89; made in house
# HRV-14 = assay: Antirhinoviral HI-HeLa Cell Culture Assay (Cell Protection Assay, XTT dye reduction); type: cell-based, human rhinovirus (HRV) serotype-14; conditions: Rhinovirus B, HRV14, 48 h; HI-HeLa cells infected with HRV-14, m.o.i. 0.13; two days; XTT; read-out: EC50
# In short: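 HI-HeLa cells infected with HRV-14 at m.o.i. 0.13 or mock-infected, then incubated with compounds for two days. Cell protection read by XTT/PMS formazan at 450/650 nm; therapeutic index = CC50/EC50.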
# T1 sequence (P03303 1538-1719): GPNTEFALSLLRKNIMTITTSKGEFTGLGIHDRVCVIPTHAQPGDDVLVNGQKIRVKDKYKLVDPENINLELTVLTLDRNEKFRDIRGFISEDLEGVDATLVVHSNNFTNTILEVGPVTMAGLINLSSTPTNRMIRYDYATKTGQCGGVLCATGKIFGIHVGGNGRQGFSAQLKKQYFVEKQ
Structure (SMILES),CC50 at 2 days [1] [µM],Ki [2] [µM],kinact/KI [2] [M⁻¹ s⁻¹],EC50 (HRV-14) [µM]
CCOC(=O)/C=C/[C@H](CCC(N)=O)NC(=O)[C@H](Cc1ccccc1)NC(=O)[C@H](CC(C)C)NC(=O)CO [Compound 111],> 320,5,2060,29.5
CC(C)C[C@H](NC(=O)OCc1ccccc1)C(=O)N[C@@H](Cc1ccccc1)C(=O)N[C@H](/C=C/C(=O)N1CCc2cc([N+](=O)[O-])ccc21)CCC(N)=O [Compound 86],> 320,4,12000,17
CC(C)C[C@H](NC(=O)OCc1ccccc1)C(=O)N[C@@H](Cc1ccccc1)C(=O)N[C@H](/C=C/C(=O)N1CCc2cccc(Cl)c21)CCC(N)=O [Compound 91],> 320,10,5430,56
CC(C)C[C@H](NC(=O)OCc1ccccc1)C(=O)N[C@@H](Cc1ccccc1)C(=O)N[C@H](/C=C/c1nccn1C)CCC(N)=O [Compound 65],> 320,2.9,,158
CC(C)C[C@H](NC(=O)OCc1ccccc1)C(=O)N[C@@H](Cc1ccccc1)C(=O)N[C@H](/C=C/C(=O)N(C)O)CCC(N)=O [Compound 138],41.7,20,1770,> 41.7
CCOC(=O)/C=C/[C@H](CCC(N)=O)NC(=O)[C@H](Cc1ccccc1)NC(=O)[C@H](CC(C)C)NC(=O)CCO [Compound 115],> 320,11,4480,19
CCOC(=O)/C=C/[C@H](CCC(N)=O)NC(=O)[C@H](Cc1ccccc1)NC(=O)[C@@H](NC(=O)SCC)C(C)C [Compound 180],> 100,0.42,300000,0.056
CCOC(=O)/C=C/[C@H](CCC(N)=O)NC(=O)[C@H](Cc1ccccc1)NC(=O)CNC(=O)OCc1ccccc1 [Compound 102],> 320,12,3840,5.6
CCOC(=O)/C=C/[C@H](CCC(N)=O)NC(=O)[C@H](Cc1ccccc1)NC(=O)[C@H](CC(C)C)NC(C)=O [Compound 107],> 320,13.5,3660,13.5
CC(C)CC(NC(=O)OCc1ccccc1)C(=O)NC(Cc1ccccc1)C(=O)NC(C=C1CCCOC1=O)CCC(N)=O (stereo not drawn) [Compound 130],> 100,0.03 to 0.04,,15.8
CCOC(=O)/C=C/C(CCC(N)=O)NC(=O)C(Cc1ccccc1)NC(=O)C(CC(C)C)NC(=O)c1ccc2ccccc2c1 (stereo not drawn) [Compound 44],> 320,12.6,21000,1
CCOC(=O)/C=C/[C@H](COC(N)=O)NC(=O)[C@H](Cc1ccccc1)NC(=O)[C@H](CC(C)C)NC(=O)OCc1ccccc1 [Compound 56],> 320,15,5620,1.6
CC(C)C[C@H](NC(=O)OCc1ccccc1)C(=O)N[C@@H](Cc1ccccc1)C(=O)N[C@H](/C=C/CCl)CCC(N)=O [Compound 74],250,2.4,,10
"CCOC(=O)/C=C/[C@H](CCC(=O)NC(c1ccccc1)(c1ccccc1)c1ccccc1)NC(=O)[C@H](Cc1ccccc1)NC(=O)[C@H](CC(C)C)NC(=O)OCc1ccccc1 [Compound 2, Ethyl-3-[CBZ-L-Leu-L-Phe-L-(Tr-Gln)]-E-Propenoate]",> 320,6.6,,100
CCOC(=O)/C=C/[C@H](CCC(N)=O)NC(=O)[C@H](Cc1ccccc1)NC(=O)[C@H](CC(C)C)NC(=O)SC [Compound 119],> 320,5,69800,1.1
CCOC(=O)/C=C/[C@H](CCC(N)=O)NC(=O)[C@H](Cc1ccc(C#N)cc1)NC(=O)[C@H](CC(C)C)NC(=O)OCc1ccccc1 [Compound 132],> 320,10,10800,5.6
CON=C/C=C/[C@H](CCC(N)=O)NC(=O)[C@H](Cc1ccccc1)NC(=O)[C@H](CC(C)C)NC(=O)OCc1ccccc1 [Compound 83],> 320,8,,100
CCOC(=O)/C=C/[C@H](CCC(N)=O)NC(=O)[C@H](Cc1ccccc1)NC(=O)[C@@H](NC(=O)OCc1ccccc1)C(C)(C)C [Compound 151],178,> 4.8,39800,0.32
CCOC(=O)/C=C/[C@H](CCC(N)=O)NC(=O)[C@H](Cc1ccccc1)NC(=O)[C@H](CC(C)C)NC(=O)CSc1ccccn1 [Compound 118],> 320,39,1450,17.8
CC(C)C[C@H](NC(=O)OCc1ccccc1)C(=O)N[C@@H](Cc1ccccc1)C(=O)N[C@H](/C=C/C(=O)OCC(C)(C)C)CCC(N)=O [Compound 163],> 100,3.6,9800,0.5
CC(C)C[C@H](NC(=O)OCc1ccccc1)C(=O)N[C@@H](Cc1ccccc1)C(=O)N[C@H](/C=C/C(=O)OC1CCCCC1)CCC(N)=O [Compound 25],> 100,5.5,3700,3.1
COc1ccc2c(c1)CCN2C(=O)C=CC(CCC(N)=O)NC(=O)C(Cc1ccccc1)NC(=O)C(CC(C)C)NC(=O)OCc1ccccc1 (stereo not drawn) [Compound 93],> 320,,3440,> 320
CCOC(=O)/C=C/[C@H](CCC(N)=O)NC(=O)[C@H](Cc1ccccc1)NC(=O)[C@@H](NC(=O)OCc1ccccc1)C(C)O (stereo partly drawn) [Compound 152],> 320,3.2,38900,1.78
CC(C)C[C@H](NC(=O)OCc1ccccc1)C(=O)N[C@@H](Cc1ccccc1)C(=O)N[C@H](/C=C/C(=O)N1CCc2cc(Br)ccc21)CCC(N)=O [Compound 94],> 320,1.5,5800,46.8
CCOC(=O)/C=C/[C@H](CCC(N)=O)NC(=O)[C@H](Cc1ccccc1)NC(=O)[C@H](CC(C)C)NC(=O)OCc1ccncc1 [Compound 36],> 320,15,12000,5.6
"CC(C)C[C@H](NC(=O)OCc1ccccc1)C(=O)N[C@@H](Cc1ccccc1)C(=O)N[C@H](/C=C/C(=O)OC(C)C)CCC(N)=O [Compound 17, Isopropyl-3-(CBZ-L-Leu-L-Phe-L-Gln)-E-Propenoate]",> 100,1.25,6100,1.8
CC(C)C[C@H](NC(=O)OCc1ccccc1)C(=O)N[C@@H](Cc1ccccc1)C(=O)N[C@H](/C=C/C(=O)N1CCc2cc(F)ccc21)CCC(N)=O [Compound 87],> 320,6,5430,10.6
CC(C)C[C@H](NC(=O)OCc1ccccc1)C(=O)N[C@@H](Cc1ccccc1)C(=O)N[C@H](/C=C\CCl)CCC(N)=O [Compound 78],79.4,7,,10
